Experimental data as given in patent publication US20260327239A1, “COMPOUNDS FOR COVALENT INHIBITION OF SHP2” (Purdue Research Foundation, priority 2023, published 2026).

Target: T1, PTP1B (Homo sapiens, UniProt P18031)
T1 sequence (P18031 1-435): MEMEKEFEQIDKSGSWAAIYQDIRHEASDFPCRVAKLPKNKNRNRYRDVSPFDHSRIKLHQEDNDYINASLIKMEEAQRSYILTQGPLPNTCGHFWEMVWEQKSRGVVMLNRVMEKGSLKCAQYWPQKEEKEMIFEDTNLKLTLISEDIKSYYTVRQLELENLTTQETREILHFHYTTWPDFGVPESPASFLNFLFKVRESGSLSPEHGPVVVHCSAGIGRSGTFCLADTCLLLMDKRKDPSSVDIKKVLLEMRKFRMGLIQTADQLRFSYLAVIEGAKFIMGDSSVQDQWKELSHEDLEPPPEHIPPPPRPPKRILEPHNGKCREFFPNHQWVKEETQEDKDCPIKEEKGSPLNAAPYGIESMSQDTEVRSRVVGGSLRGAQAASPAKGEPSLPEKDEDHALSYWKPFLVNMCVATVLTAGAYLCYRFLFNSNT
Assay: Time-dependent IC50 determination, PTP1B (10 min preincubation, pNPP)
Type: biochemical
Procedure: During active compound characterization, other common PTPs, including SHP1. PTP1B, and LYP, were counter-screened. Compounds were incubated for 10 minutes with the corresponding PTP (4 μM) before being diluted 50-fold into a solution containing excess substrate para-nitrophenyl phosphate (10 mM) to monitor the remaining activity. […] This was not expected, given their high sequence and structural homology. […] While unexpected, the lower sequence homology provides a rationale for the observed selectivity.
Inhibitors were evaluated for their ability to inhibit the reaction catalyzed by SHP2 using para-nitrophenyl phosphate (pNPP) as a substrate at pH 7 and 25° C. The reaction was started in a clear flat-bottom 96-well plate (Corning Costar Assay Plate #9017) by the addition of 25 μL of 4 μM PTP in DMG buffer to 25 μl of 2× inhibitor (final concentrations=2 μM PTP, 100-0 μM inhibitor). Reactions were incubated for 1 or 10 minutes before transferring 4 μL into 196 μL of 10.1 mM pNPP in DMG buffer (final concentration=40 nM PTP, 10 mM pNPP). These wells were then allowed to react for 10, 45, or 3 minutes for SHP1 and SHP2, LYP, PTP1B respectively before quenching with 50 μL of 5 M NaOH. Plates were then read for absorbance at 405 nm using a CLARIOstar^Plus plate reader (BMG Labetch). […]

For `C=C1C(=O)[C@@]2(C(=O)N3CCN(c4ccc(I)cc4)CC3)CC(=O)C[C@@H]1C2` [Compound 37], the IC50 (PTP1B, 10 minutes preincubation, curve not completed (solubility), extrapolated, read-out: 10 Minute IC50) was 677 µM and the “Fold-Selective (10 Minutes)” value (SHP2 over PTP1B) was 44.56.
